Active and inactive are the calls of the source. The rule behind the calls is not given here.
Experiments:
[1] = AUC (infinity) in mouse at 1 mg/kg, po; type: ADME, organism-based; design: time infinity, dose 1 mg/kg, route oral; conditions: plasma
[2] = Inhibition of protein kinase
[3] = test system: KPL4; test: Antitumor activity against human KPL4 cells expressing PI3Kalpha H1047R mutant xenografted in mouse assessed as tumor regression at 12.5 mg/kg, po for 6 weeks; type: functional, organism-based; design: dose 12.5 mg/kg
[4] = Half life in rat at 0.5 mg/kg, iv; type: ADME, organism-based; design: dose 0.5 mg/kg, route intravenous; conditions: in vivo
[5] = Half life in human liver microsomes; type: ADME, Microsome
[6] = Oral bioavailability in monkey at 1 mg/kg; type: ADME, organism-based, Macaca mulatta; conditions: rhesus monkey, in vivo
[7] = biological target: Phosphatidylinositol 4-phosphate 3-kinase C2 domain-containing subunit alpha (Homo sapiens, UniProt O00443); test: Inhibition of PI3KC2alpha
[8] = AUC (infinity) in rat at 1 mg/kg, po; type: ADME, organism-based; design: time infinity, dose 1 mg/kg, route oral; conditions: plasma
[9] = AUC (infinity) in rat at 0.5 mg/kg, iv; type: ADME, organism-based; design: dose 0.5 mg/kg, route intravenous, time infinity; conditions: plasma
[10] = biological target: Phosphatidylinositol 4-phosphate 3-kinase C2 domain-containing subunit beta (Homo sapiens, UniProt O00750); test: Inhibition of PI3KC2beta
[11] = Oral bioavailability in dog at 1 mg/kg; type: ADME, organism-based, Canis lupus familiaris; conditions: in vivo
[12] = Tmax in dog at 1 mg/kg, po; type: ADME, organism-based, Canis lupus familiaris; design: dose 1 mg/kg, route oral; conditions: in vivo
[13] = Tmax in mouse at 1 mg/kg, po; type: ADME, organism-based; design: dose 1 mg/kg, route oral; conditions: in vivo
[14] = Clearance in dog at 0.25 mg/kg, iv; type: ADME, organism-based, Canis lupus familiaris; design: dose 0.25 mg/kg, route intravenous; conditions: in vivo
[15] = biological target: Serine/threonine-protein kinase mTOR (Homo sapiens, UniProt P42345); test: Inhibition of mTOR
[16] = Half life in mouse at 1 mg/kg, po; type: ADME, organism-based; design: dose 1 mg/kg, route oral; conditions: in vivo
[17] = Clearance in rat at 0.5 mg/kg, iv; type: ADME, organism-based; design: dose 0.5 mg/kg, route intravenous; conditions: in vivo
[18] = Oral bioavailability in mouse; type: ADME, organism-based; conditions: in vivo
[19] = Half life in monkey at 1 mg/kg, po; type: ADME, organism-based, Macaca mulatta; design: dose 1 mg/kg, route oral; conditions: rhesus monkey, in vivo
[20] = Tmax in rat at 1 mg/kg, po; type: ADME, organism-based; design: dose 1 mg/kg, route oral; conditions: in vivo
[21] = Half life in rat at 1 mg/kg, po; type: ADME, organism-based; design: dose 1 mg/kg, route oral; conditions: in vivo
[22] = test system: KPL4; test: Antitumor activity against human KPL4 cells expressing PI3Kalpha H1047R mutant xenografted in mouse assessed as tumor regression at 12.5 mg/kg, po administered intermittent dosing schedule qd for 2 weeks on/1 week off; type: functional, organism-based; design: dose 12.5 mg/kg
[23] = AUC (infinity) in mouse at 2 mg/kg, iv; type: ADME, organism-based; design: time infinity, dose 2 mg/kg, route intravenous; conditions: plasma
[24] = Half life in monkey at 0.25 mg/kg, iv; type: ADME, organism-based, Macaca mulatta; design: dose 0.25 mg/kg, route intravenous; conditions: rhesus monkey, in vivo
[25] = test system: KPL4; test: Antitumor activity against human KPL4 cells expressing PI3Kalpha H1047R mutant xenografted in mouse assessed as tumor regression at 12.5 mg/kg, po administered intermittent dosing schedule 5 days on/2 days off; type: functional, organism-based; design: dose 12.5 mg/kg
[26] = AUC (infinity) in dog at 1 mg/kg, po; type: ADME, organism-based, Canis lupus familiaris; design: time infinity, dose 1 mg/kg, route oral; conditions: plasma
[27] = Tmax in monkey at 1 mg/kg, po; type: ADME, organism-based, Macaca mulatta; design: dose 1 mg/kg, route oral; conditions: rhesus monkey, in vivo
[28] = Oral bioavailability in rat at 1 mg/kg; type: ADME, organism-based; conditions: in vivo
[29] = Clearance in mouse at 2 mg/kg, iv; type: ADME, organism-based; design: dose 2 mg/kg, route intravenous; conditions: in vivo
[30] = test system: PC-3; test: In vivo antitumor activity against human PC3 cells in xenograft model assessed as inhibition of tumor growth at 25 mg/kg, po qd for 11 days relative to control; type: functional; conditions: PC-3, 264 h
[31] = biological target: Phosphatidylinositol 3-kinase catalytic subunit type 3 (Homo sapiens, UniProt Q8NEB9); test: Inhibition of Vps34
[32] = Half life in mouse at 2 mg/kg, iv; type: ADME, organism-based; design: dose 2 mg/kg, route intravenous; conditions: in vivo
[33] = Clearance in monkey at 0.25 mg/kg, iv; type: ADME, organism-based, Macaca mulatta; design: dose 0.25 mg/kg, route intravenous; conditions: rhesus monkey, in vivo
[34] = Oral bioavailability in mouse at 1 mg/kg; type: ADME, organism-based; conditions: in vivo
[35] = AUC (infinity) in dog at 0.25 mg/kg, iv; type: ADME, organism-based, Canis lupus familiaris; design: time infinity, dose 0.25 mg/kg, route intravenous; conditions: plasma
[36] = AUC (infinity) in monkey at 1 mg/kg, po; type: ADME, organism-based, Macaca mulatta; design: time infinity, dose 1 mg/kg, route oral; conditions: rhesus monkey, plasma
[37] = Half life in dog at 1 mg/kg, po; type: ADME, organism-based, Canis lupus familiaris; design: dose 1 mg/kg, route oral; conditions: in vivo
[38] = Half life in dog at 0.25 mg/kg, iv; type: ADME, organism-based, Canis lupus familiaris; design: dose 0.25 mg/kg, route intravenous; conditions: in vivo
[39] = test system: PC-3; test: In vivo antitumor activity against human PC3 cells in xenograft model assessed as inhibition of tumor growth at 100 mg/kg, po qd for 11 days relative to control; type: functional; conditions: PC-3, 264 h
[40] = Half life in human liver microsomes assessed as glucuronidation; type: ADME, Microsome
[41] = biological target: Phosphatidylinositol 4,5-bisphosphate 3-kinase catalytic subunit alpha isoform (Homo sapiens, UniProt P42336); test: Inhibition of PI3Kalpha
[42] = Antiproliferative activity against human KPL4 cells; type: functional, cell-based

Phosphatidylinositol 4,5-bisphosphate 3-kinase catalytic subunit alpha isoform, sequence (P42336 whole entry, canonical isoform): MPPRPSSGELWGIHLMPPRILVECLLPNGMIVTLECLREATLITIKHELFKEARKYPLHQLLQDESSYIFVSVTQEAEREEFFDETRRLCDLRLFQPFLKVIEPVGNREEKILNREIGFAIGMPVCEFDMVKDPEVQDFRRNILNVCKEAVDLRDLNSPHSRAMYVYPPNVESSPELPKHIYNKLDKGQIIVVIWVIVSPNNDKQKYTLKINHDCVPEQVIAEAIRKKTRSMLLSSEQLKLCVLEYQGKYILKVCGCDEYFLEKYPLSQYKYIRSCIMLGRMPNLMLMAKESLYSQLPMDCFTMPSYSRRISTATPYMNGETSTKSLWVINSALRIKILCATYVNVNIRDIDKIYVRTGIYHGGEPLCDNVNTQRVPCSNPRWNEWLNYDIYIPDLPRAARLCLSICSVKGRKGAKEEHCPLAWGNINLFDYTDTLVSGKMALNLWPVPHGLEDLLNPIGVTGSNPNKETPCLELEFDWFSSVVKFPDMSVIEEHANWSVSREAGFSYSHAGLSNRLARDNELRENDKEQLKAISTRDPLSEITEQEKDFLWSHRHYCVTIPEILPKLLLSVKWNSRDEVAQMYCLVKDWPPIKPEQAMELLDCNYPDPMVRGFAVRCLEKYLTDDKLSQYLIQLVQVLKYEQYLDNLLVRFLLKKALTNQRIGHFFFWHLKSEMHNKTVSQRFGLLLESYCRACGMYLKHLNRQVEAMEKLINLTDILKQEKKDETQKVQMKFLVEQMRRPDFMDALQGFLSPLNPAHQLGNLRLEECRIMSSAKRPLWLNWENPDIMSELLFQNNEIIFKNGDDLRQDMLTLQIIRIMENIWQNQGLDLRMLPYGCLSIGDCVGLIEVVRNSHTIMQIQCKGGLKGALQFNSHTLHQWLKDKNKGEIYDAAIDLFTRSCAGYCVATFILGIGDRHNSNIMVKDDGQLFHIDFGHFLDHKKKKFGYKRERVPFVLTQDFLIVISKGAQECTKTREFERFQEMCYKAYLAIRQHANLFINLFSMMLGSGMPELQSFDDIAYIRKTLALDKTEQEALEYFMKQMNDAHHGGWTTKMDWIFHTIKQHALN
Phosphatidylinositol 4-phosphate 3-kinase C2 domain-containing subunit alpha, sequence (O00443 whole entry, the tested form may be a part): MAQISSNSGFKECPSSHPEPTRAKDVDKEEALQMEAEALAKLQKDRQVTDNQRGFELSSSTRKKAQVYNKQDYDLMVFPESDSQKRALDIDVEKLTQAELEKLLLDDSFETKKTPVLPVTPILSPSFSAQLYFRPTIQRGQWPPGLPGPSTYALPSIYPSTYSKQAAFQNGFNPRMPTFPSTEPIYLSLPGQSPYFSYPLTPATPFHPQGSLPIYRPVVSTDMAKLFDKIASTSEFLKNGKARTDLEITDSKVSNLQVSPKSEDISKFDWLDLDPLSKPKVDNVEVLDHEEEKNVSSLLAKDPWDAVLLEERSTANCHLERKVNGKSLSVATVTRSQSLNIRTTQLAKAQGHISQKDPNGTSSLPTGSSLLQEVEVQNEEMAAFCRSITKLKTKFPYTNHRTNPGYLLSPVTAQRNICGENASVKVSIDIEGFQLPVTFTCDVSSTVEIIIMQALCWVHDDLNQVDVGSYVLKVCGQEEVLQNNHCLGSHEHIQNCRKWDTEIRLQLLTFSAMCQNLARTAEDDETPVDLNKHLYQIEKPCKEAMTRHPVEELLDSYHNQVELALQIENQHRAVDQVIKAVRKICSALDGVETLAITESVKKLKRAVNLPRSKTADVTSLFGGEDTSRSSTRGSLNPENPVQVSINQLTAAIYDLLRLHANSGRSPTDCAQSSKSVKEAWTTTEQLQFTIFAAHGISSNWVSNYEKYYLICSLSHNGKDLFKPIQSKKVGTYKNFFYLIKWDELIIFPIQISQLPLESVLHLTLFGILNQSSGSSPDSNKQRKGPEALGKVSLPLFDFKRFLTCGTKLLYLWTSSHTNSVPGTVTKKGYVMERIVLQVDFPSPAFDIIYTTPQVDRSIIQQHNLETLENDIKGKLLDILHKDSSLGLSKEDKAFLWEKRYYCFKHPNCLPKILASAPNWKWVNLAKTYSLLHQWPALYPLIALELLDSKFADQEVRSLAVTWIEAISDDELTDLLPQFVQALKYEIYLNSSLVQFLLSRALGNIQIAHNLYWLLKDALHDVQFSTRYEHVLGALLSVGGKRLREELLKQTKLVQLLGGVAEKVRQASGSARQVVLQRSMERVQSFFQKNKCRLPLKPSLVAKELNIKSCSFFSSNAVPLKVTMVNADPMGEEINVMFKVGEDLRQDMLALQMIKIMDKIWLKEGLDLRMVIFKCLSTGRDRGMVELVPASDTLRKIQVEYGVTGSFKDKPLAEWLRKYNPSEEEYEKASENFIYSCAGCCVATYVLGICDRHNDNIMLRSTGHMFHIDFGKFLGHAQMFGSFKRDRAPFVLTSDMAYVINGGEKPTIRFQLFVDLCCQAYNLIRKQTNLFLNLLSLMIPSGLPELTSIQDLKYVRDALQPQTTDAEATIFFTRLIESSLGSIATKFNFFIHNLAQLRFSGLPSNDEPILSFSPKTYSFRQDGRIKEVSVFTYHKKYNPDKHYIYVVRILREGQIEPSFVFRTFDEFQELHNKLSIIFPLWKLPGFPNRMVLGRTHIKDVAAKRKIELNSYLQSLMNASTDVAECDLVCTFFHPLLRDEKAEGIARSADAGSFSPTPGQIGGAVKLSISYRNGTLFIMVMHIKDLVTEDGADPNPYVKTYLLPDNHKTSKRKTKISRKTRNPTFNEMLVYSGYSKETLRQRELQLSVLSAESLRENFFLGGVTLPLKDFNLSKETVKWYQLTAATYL
Phosphatidylinositol 3-kinase catalytic subunit type 3, sequence (Q8NEB9 whole entry): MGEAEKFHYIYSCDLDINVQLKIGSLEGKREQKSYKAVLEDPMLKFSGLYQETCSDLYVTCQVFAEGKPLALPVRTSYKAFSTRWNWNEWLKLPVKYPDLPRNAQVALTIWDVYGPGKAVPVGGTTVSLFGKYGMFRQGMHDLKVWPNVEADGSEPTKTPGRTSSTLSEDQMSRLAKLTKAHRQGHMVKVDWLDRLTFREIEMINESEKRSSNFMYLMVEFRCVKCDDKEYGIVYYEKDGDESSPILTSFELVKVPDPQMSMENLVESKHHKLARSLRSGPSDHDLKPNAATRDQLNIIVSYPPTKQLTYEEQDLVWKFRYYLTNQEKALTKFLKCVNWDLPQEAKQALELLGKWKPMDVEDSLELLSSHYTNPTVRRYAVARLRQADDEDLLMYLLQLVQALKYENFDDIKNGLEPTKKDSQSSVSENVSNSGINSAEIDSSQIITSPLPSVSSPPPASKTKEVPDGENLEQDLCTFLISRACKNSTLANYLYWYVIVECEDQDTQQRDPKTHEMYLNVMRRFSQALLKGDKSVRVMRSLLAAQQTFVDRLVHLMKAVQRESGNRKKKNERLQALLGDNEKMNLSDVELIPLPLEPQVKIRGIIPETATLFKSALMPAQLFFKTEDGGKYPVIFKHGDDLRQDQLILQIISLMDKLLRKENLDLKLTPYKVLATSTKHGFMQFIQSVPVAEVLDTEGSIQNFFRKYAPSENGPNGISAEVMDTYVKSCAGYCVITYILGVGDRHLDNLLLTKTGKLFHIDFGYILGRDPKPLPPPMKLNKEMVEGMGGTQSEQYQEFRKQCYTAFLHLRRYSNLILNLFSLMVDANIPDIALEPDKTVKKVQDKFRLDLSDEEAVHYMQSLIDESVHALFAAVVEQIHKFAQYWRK

## CS(=O)(=O)N1CCc2c(-c3cnc(N)nc3)nc(N3CCOCC3)nc21 [IZORLISIB]
[1]
  AUC(0-inf): 978 ng·h/mL
[2]
  IC50: > 10000 nM
[3]
  Activity: Active
[4]
  half-life: 2.6 h
[5]
  half-life: > 6 h
[6]
  bioavailability: 78.4%
[7]
  IC50: > 10000 nM
[8]
  AUC(0-inf): 1790 ng·h/mL
[9]
  AUC(0-inf): 1350 ng·h/mL
[10]
  IC50: 5300 nM
[11]
  bioavailability: 54.2%
[12]
  Tmax: 4.5 h
[13]
  Tmax: 0.25 h
[14]
  clearance: 6.4 mL/min/kg
[15]
  IC50: 1600 nM
[16]
  half-life: 3.8 h
[17]
  clearance: 6.3 mL/min/kg
[18]
  bioavailability: 101%
[19]
  half-life: 6.7 h
[20]
  Tmax: 0.8 h
[21]
  half-life: 3.5 h
[22]
  Activity: Active
[23]
  AUC(0-inf): 1930 ng·h/mL
[24]
  half-life: 3.2 h
[25]
  Activity: Active
[26]
  AUC(0-inf): 1430 ng·h/mL
[27]
  Tmax: 4 h
[28]
  bioavailability: 66.2%
[29]
  clearance: 17.5 mL/min/kg
[30]
  inhibition in vivo at 25 mg/kg: 101%
[31]
  IC50: > 10000 nM
[32]
  half-life: 1.7 h
[33]
  clearance: 6.2 mL/min/kg
[34]
  bioavailability: 101%
[35]
  AUC(0-inf): 660 ng·h/mL
[36]
  AUC(0-inf): 2170 ng·h/mL
[37]
  half-life: 3.3 h
[38]
  half-life: 1.6 h

## Nc1ncc(-c2nc(N3CCOCC3)nc3c2CCN3c2cccnc2)cn1
[5]
  half-life: 1.18 h
[39]
  inhibition in vivo at 100 mg/kg: 112%
[40]
  half-life: > 1 h
[18]
  bioavailability: 41%
[41]
  IC50: 33 nM
[42]
  IC50: 15 nM

## Oc1cccc(-c2nc(N3CCOCC3)nc3c2CCN3c2cccnc2)c1
[41]
  IC50: 41 nM

## Oc1cccc(-c2nc(N3CCOCC3)nc3c2CCN3c2ccncc2)c1
[5]
  half-life: 0.35 h
[40]
  half-life: 0.183 h
[18]
  bioavailability: 1.6%
[41]
  IC50: 8.6 nM
[42]
  IC50: 450 nM

## Oc1cccc(-c2nc(N3CCOCC3)nc3c2CCN3c2ccc3nc[nH]c3c2)c1
[41]
  IC50: 77 nM

From ChEMBL document CHEMBL1681712, “Discovery and biological activity of a novel class I PI3K inhibitor, CH5132799” (Bioorg Med Chem Lett, 2011)
